Experimental data: article PMC3514016 (The international journal of biochemistry & cell biology, 2009)
Where a SMILES comes first, the peptide text is derived from it. The star is where a group is joined. AMC = Cc1cc(=O)oc2cc(N*)ccc12; Cbz = O=C(OCc1ccccc1)*

Molecular target: Human CatB (human wild-type cathepsin B) (Homo sapiens, UniProt P07858, S194A)
Conditions: read-out: Human CatB / Km; 37 °C; pH not stated for the Km assay

Row | Km [µM] | Structure (SMILES)
1 | 100 | Cc1cc(=O)oc2cc(NC(=O)[C@H](CCCNC(=N)N)NC(=O)[C@H](CCCNC(=N)N)NC(=O)OCc3ccccc3)ccc12 [Z-Arg-Arg-AMC] (Cbz-Arg-Arg-{AMC})
2 | 47 | Cc1cc(=O)oc2cc(NC(=O)[C@H](CCCNC(=N)N)NC(=O)[C@H](Cc3ccccc3)NC(=O)OCc3ccccc3)ccc12 [Z-Phe-Arg-AMC] (Cbz-Phe-Arg-{AMC})
